Experiment [1] concerns 3A6. Description: steady-state hydrolysis kinetics, Hanes-Woolf plot. It is filed as biochemical. The note with it: read-out: 3A6 / Km; 100 mM Tris-sulfate, pH 8.5, 40 °C, enzyme 0-12 nM.
Experiment [2] concerns 3A6. Description: steady-state hydrolysis kinetics, Hanes-Woolf plot. It is filed as biochemical. The note with it: read-out: 3A6I / Km; 100 mM Tris-sulfate, pH 8.5, 40 °C, enzyme 0-12 nM.

Where two headings read alike, the source gives them in different places.

With `COc1cc(/C=C/C(=O)OC[C@@H]2O[C@@H](Oc3ccc([N+](=O)[O-])cc3)[C@H](O)[C@H]2O)ccc1O` [Nph-5-Fe-Araf, p‐nitrophenyl 5‐O‐trans‐feruloyl‐α‐L‐arabinofuranoside], in experiment [1], the Km stood at 970 ± 30 µM.
Take `COc1cc(/C=C/C(=O)OC[C@@H]2O[C@@H](O[C@@H]3[C@@H](O)[C@H](O[C@@H]4COC(O)[C@H](O)[C@H]4O)OC[C@H]3O)[C@H](O)[C@H]2O)ccc1O` (stereo partly drawn) [FAXX, (5‐O‐(trans‐feruloyl)‐α‐L‐arabinofuranosyl)‐(1,3)‐β‐D‐xylopyranosyl‐(1,4)‐D‐xylopyranose]: the Km in experiment [1] was found to be 1960 ± 370 µM.
As for `COC(=O)/C=C/c1ccc(O)c(OC)c1` [Methyl ferulate], in experiment [1], the Km was 2340 ± 370 µM.
As for `COC(=O)/C=C/c1ccc(O)cc1` [Methyl p-coumarate], in experiment [1], the Km stood at 1550 ± 110 µM.
Take `CCC(=O)Oc1ccc([N+](=O)[O-])cc1` [p-Nitrophenyl propionate]: in experiment [1], the Km was determined as 150 ± 90 µM.
In the case of `CC(=O)Oc1ccc([N+](=O)[O-])cc1` [p-Nitrophenyl acetate], the Km in experiment [1] was 180 ± 90 µM; in experiment [2], 3.48 ± 0.21 mM.
As for `COC(=O)/C=C/c1cc(OC)c(O)c(OC)c1` [Methyl sinapinate], in experiment [1], the Km amounted to 400 ± 80 µM.
Take `CCCC(=O)Oc1ccc([N+](=O)[O-])cc1` [p-Nitrophenyl butyrate]: the Km in experiment [1] turned out to be 240 ± 20 µM; in experiment [2] it was 0.89 ± 0.07 mM.
For `CCCCCC(=O)Oc1ccc([N+](=O)[O-])cc1` [p-Nitrophenyl hexanoate], the Km in experiment [1] came to 1530 ± 90 µM.
